The values below come from ChEMBL document CHEMBL5674860, “Optimized Dual-Glo Assay to identify co-culture-induced drug vulnerabilities in 3D CRC models” (2024).

Holding throughout (format): functional, Homo sapiens
Common to all, as to design: dose or concentration left out as unconfirmed

Test [1] has as its system Colon cancer organoid. The test is described as follows: Optimized Dual-Glo assay to identify co-culture induced drug vulnerabilities using donated chemical probes and chemogenomics kinase set in O06 CRC organoid and F06 CAF mono and co-culture. […] Cell viability is reported both mono and co-culture models.
For test [2], the system named is Colon cancer organoid. The test is described as follows: Optimized Dual-Glo assay to identify co-culture induced drug vulnerabilities using donated chemical probes and chemogenomics kinase set in O14 CRC organoid and F14 CAF mono and co-culture. […] Cell viability is reported both mono and co-culture models.
The subject of test [3] is Colon cancer organoid. The test is described as follows: Optimized Dual-Glo assay to identify co-culture induced drug vulnerabilities using donated chemical probes and chemogenomics kinase set in O20 CRC organoid and F20 CAF mono and co-culture. […] Cell viability is reported both mono and co-culture models.
[4] abbreviates: Culture type Co-Culture, Transduced with Lucferase2-P2A-EGFP lentivirus.
Where [5] appears, read: Culture type Co-Culture, Transduced with Renilla-dsRed lentivirus.
Setting [6] is: Culture type Mono-Culture, Transduced with Lucferase2-P2A-EGFP lentivirus.
Setting [7] is: Culture type Mono-Culture, Transduced with Renilla-dsRed lentivirus.

Structures are written as SMILES.

For the compound `Cc1c(C(=O)Nc2ccc(Oc3ccnc4[nH]cc(-c5ccccc5)c34)c(F)c2)c(=O)n(-c2ccc(F)cc2)n1C`, the “Cell Viability” value is reported as 73.6786% in test [1] (setting [4]); 56.2803% in test [1] (setting [5]); 78.2312% in test [1] (setting [6]); 39.3734% in test [1] (setting [7]); 84.4536% in test [2] (setting [4]); 22.1268% in test [2] (setting [5]). The “Cell Viability” value in test [2] (setting [6]) worked out at 155.311%; in test [2] (setting [7]) it was 25.4653%; in test [3] (setting [4]), 223.97%; in test [3] (setting [5]) it was 22.9382%; in test [3] (setting [6]), 217.145%; in test [3] (setting [7]), 43.0843%.
Take `CC1(C)C(N)=Nc2cc(OCCCCN3Cc4ccc(OCc5cn(CC(=O)N6CCC(CCN7CCCC7)CC6)nn5)cc4C3)c(OCC3CC3)cc21`: the “Cell Viability” value turned out to be 65.2251% in test [1] (setting [4]); 114.368% in test [1] (setting [5]); 80.2418% in test [1] (setting [6]); 105.711% in test [1] (setting [7]); 75.997% in test [2] (setting [4]); 107.884% in test [2] (setting [5]). In addition, the “Cell Viability” value came to 116.341% in test [2] (setting [6]); 106.753% in test [2] (setting [7]); 70.4635% in test [3] (setting [4]); 125.652% in test [3] (setting [5]); 114.565% in test [3] (setting [6]); 111.957% in test [3] (setting [7]).
Turning to `CN(C)C(=O)Cn1cc(-c2ccc(-c3cncc4ccccc34)cc2)cn1`, the “Cell Viability” value in test [1] (setting [4]) was found to be 83.3121%; in test [1] (setting [5]), 47.4852%; in test [1] (setting [6]) it was 74.4895%; in test [1] (setting [7]) it was 24.5354%; in test [2] (setting [4]), 86.7541%; in test [2] (setting [5]) it was 14.5396%. The “Cell Viability” value in test [2] (setting [6]) was found to be 75.1396%; in test [2] (setting [7]), 23.2323%; in test [3] (setting [4]) it was 97.1634%; in test [3] (setting [5]), 25.8647%; in test [3] (setting [6]), 131.343%; in test [3] (setting [7]), 32.5119%.
For `Cc1ccc2nc(NCCN)c3ncc(C)n3c2c1.O=C(O)C(F)(F)F.O=C(O)C(F)(F)F`, the “Cell Viability” value was found to be 94.0156% in test [1] (setting [4]); 112.188% in test [1] (setting [5]); 113.649% in test [1] (setting [6]); 154.019% in test [1] (setting [7]); 82.3615% in test [2] (setting [4]); 114.809% in test [2] (setting [5]). Besides, the “Cell Viability” value in test [2] (setting [6]) is 73.2048%; in test [2] (setting [7]) it was 109.465%; in test [3] (setting [4]), 230.973%; in test [3] (setting [5]) it was 67.6056%; in test [3] (setting [6]) it was 101.148%; in test [3] (setting [7]), 93.4293%.
On to `CN(C)C(=O)Cn1cc(-c2ccc(-c3nnc4ccccn34)cc2)cn1`, for which the “Cell Viability” value in test [1] (setting [4]) stood at 105.212%; in test [1] (setting [5]) it was 110.192%; in test [1] (setting [6]), 69.5948%; in test [1] (setting [7]) it was 88.4504%; in test [2] (setting [4]), 93.0602%; in test [2] (setting [5]) it was 86.1026%. Besides, the “Cell Viability” value in test [2] (setting [6]) was determined as 137.129%; in test [2] (setting [7]) it was 87.3202%; in test [3] (setting [4]) it was 165.558%; in test [3] (setting [5]), 52.6743%; in test [3] (setting [6]), 140.63%; in test [3] (setting [7]), 85.2439%.
